Experimental findings from US12055549B2, “Methods of use of anti-TNFα antibodies” (UCB Biopharma SRL, priority 2015, dated 2024) are described below.

The target in this assay is TNFα (Homo sapiens, UniProt P01375). Kind of assay: SPR on Biacore 4000, immobilised soluble TNFα. In kind it is binding. The following applies: concentration of up to 100 μM. As for the experimental part: In another experiment, BIO8898 was tested against the immobilised soluble form of CD40L and the soluble form of TNFα by SPR on a Biacore 4000 machine.
TNFα, sequence (P01375 77-233 limits assumed): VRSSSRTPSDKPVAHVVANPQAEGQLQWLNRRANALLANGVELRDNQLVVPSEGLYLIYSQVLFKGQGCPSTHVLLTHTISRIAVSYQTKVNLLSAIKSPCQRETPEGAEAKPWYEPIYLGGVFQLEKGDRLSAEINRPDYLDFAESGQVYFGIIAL
(Surface plasmon resonance follows binding to a sensor surface in real time, without labels.)

Turning to `O=C(NCc1cccc(-c2ccccc2)c1)c1cc(-c2cc(C(=O)NC(C(=O)O)C3CCCCC3)nc(C(=O)N3CCCC3CN3CCCC3)c2)cc(C(=O)N2CCCC2CN2CCCC2)n1` (stereo not shown) [BIO8898], the “binding to TNFα” value is “found not to bind to TNFα”.
